Tests used:
[1] = test system: human prostate cancer cells; conditions: Shigemura et al. 2007; cited from earlier work
T24 cells = assay: Cell viability and PARP cleavage in T24 cells; assay type: cell-based, human; conditions: honokiol 20 μM, 0.5% serum
Method: (§1) In FIG. 17A, T24 and Calu1 cells (obtained from the American Type Culture Collection) were plated in DMEM containing 10% serum for 48 hr and then shifted to either 10% serum or 0.5% serum overnight as indicated. Honokiol (20 μM) or control ethanol was then added for 4 hr as indicated. [^3H]-Myristate was added with the honokiol. After 4 hr, BtOH (0.7%) was added for 20 min, at which time the cells were harvested and the level of phosphatidyl-BtOH (P-Bt) was determined as in FIGS. 12A-C. The experiments shown are representative of at least two independent experiments. In FIG. 17B, T24 and Calu-1 cells were plated in DMEM with 10% serum for 48 hr then changed to DMEM containing either 10% or 0.5% serum overnight as indicated. Honokiol (20 μM) or control ethanol was then added either at the time of changing media (24 hr), or 4 hr before harvesting as in FIGS. 14A-E, at which time the cells were examined for cell viability or PARD cleavage. […]
Cell viability was determined by trypan blue exclusion. […] After 10 min, trypan blue uptake (dead cells) was determined by counting on a hemocytometer. Apoptosis was evaluated by examination of cleavage of the caspase 3 substrate PARP as described previously (Chen et al., “Alternative Phospholipase D/mTOR Survival Signal in Human Breast Cancer Cells,” Oncogene 24:672-9 (2005), which is hereby incorporated by reference in its entirety). […]

[2] = test system: PLD activity in Calu-1 cells; assay: In vivo PLD activity in Calu-1 lung cancer cells; assay type: cell-based, human; conditions: honokiol 20 μM, 4 hr
Method: as §1, with “indicated.” for “indicated. Honokiol (20 μM) or control ethanol was then added either at the time of changing media (24 hr), or 4 hr before harvesting as in FIGS. 14A-E, at which time the cells were examined for cell viability or PARD cleavage.”
For in vivo PLD activity, cells were plated in 60 mm culture dishes in DMEM with 10% serum at a density that would allow them to grow to about 80% confluence after 2 days, then cells were shifted to DMEM containing 0.5% or 10% serum as indicated in the figure legends overnight. […] Briefly, PLD activity was measured by the release of [methyl-^3H] choline from [choline-methyl-^3H]dipalmitoyl-phosphatidylcholine. […] Free [methyl-^3H] choline was separated from precipitated lipids and proteins by centrifugation and was analyzed by liquid scintillation counting. […]

## C=CCc1ccc(O)c(-c2ccc(O)c(CC=C)c2)c1 [honokiol, Honokiol]
[1]
  bone metastatic growth of human prostate cancer cells: inhibit the bone metastatic growth
T24 cells
  PARP cleavage: induced
  cell death: induced
[2]; 0.5% serum
  stress-induced PLD activity: suppressed
[2]; 10% serum
  PLD activity observed in the presence of serum: little effect

Reference: US20120301895A1, “METHODS OF MODULATING BINDING OF SON OF SEVENLESS TO PHOSPHATIDIC ACID AND IDENTIFYING COMPOUNDS THAT MODULATE SUCH BINDING” (THE RESEARCH FOUNDATION OF STATE UNIVERSITY OF NEW YORK, priority 2007, published 2012)
